In ChEMBL document CHEMBL2216750, “Irreversible protein kinase inhibitors: balancing the benefits and risks” (J Med Chem, 2012):

Key:
[1] = molecular target: Mitogen-activated protein kinase kinase kinase 1 (Homo sapiens, UniProt Q13233); test: Inhibition of MEKK1
[2] = molecular target: Dual specificity mitogen-activated protein kinase kinase 1 (Homo sapiens, UniProt Q02750); test: Inhibition of MEK1
[3] = molecular target: T1, Proto-oncogene tyrosine-protein kinase Src (Gallus gallus, UniProt P00523); test: Inhibition of chicken c-Src using IYGEFKKK peptide as a substrate and [32P]ATP by […]
Mus musculus = test: Receptor occupancy of Btk in CIA mouse model at 60 mg/kg/day; format: functional
[4] = molecular target: Proto-oncogene tyrosine-protein kinase Src (Gallus gallus, UniProt P00523, T338G); test: Inhibition of chicken c-Src T338G mutant
[5] = molecular target: T1, Proto-oncogene tyrosine-protein kinase Src; test: Inhibition of chicken c-Src
[6] = molecular target: Mitogen-activated protein kinase 1 (Homo sapiens, UniProt P28482); test: Inhibition of Erk2
[7] = molecular target: T2, Dual specificity mitogen-activated protein kinase kinase 4 (Homo sapiens, UniProt P45985); test: Inhibition of MKK4
T2 sequence (P45985 whole entry): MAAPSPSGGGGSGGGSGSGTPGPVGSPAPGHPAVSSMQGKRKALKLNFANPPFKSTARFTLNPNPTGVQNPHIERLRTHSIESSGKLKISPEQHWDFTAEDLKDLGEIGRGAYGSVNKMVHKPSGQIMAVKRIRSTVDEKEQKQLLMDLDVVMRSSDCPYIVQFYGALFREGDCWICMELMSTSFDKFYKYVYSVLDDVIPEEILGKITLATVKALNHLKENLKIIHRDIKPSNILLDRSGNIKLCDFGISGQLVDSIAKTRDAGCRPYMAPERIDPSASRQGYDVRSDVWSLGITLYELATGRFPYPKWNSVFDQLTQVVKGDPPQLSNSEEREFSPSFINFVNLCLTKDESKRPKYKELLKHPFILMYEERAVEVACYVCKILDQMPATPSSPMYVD

[8] = molecular target: T3, Dual specificity mitogen-activated protein kinase kinase 7 (Homo sapiens, UniProt O14733); test: Inhibition of MEK7
T3 sequence (O14733 whole entry): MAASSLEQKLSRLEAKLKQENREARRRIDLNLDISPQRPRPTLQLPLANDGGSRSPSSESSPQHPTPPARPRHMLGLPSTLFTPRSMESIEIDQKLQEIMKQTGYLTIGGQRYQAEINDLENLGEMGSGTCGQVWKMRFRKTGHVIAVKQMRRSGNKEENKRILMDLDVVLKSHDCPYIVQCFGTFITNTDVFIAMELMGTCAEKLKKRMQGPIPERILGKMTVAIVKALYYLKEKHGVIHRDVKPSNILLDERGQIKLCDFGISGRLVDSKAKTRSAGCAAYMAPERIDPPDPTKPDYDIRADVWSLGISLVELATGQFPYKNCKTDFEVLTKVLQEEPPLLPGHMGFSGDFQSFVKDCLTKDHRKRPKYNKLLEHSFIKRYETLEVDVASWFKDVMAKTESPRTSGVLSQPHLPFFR

[9] = molecular target: RAC-alpha serine/threonine-protein kinase (Homo sapiens, UniProt P31749); test: Inhibition of human AKT1 using biotinylated GSKalpha peptide (SGRARTSSFA) as a substrate after 1 hr
Chain of RAC-alpha serine/threonine-protein kinase (P31749 whole entry): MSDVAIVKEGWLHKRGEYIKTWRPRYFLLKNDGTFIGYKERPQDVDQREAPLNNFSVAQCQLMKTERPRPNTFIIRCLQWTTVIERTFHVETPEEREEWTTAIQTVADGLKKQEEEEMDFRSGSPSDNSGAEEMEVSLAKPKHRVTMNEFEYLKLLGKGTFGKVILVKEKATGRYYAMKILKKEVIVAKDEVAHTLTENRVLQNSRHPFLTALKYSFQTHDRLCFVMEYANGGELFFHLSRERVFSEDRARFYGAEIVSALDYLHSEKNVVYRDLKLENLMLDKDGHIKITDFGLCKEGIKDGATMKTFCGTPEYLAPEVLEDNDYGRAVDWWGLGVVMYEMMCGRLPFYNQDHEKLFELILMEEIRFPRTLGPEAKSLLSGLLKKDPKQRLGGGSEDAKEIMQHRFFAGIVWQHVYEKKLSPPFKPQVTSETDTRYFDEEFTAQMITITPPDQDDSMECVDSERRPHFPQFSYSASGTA

Chain of Dual specificity mitogen-activated protein kinase kinase 1 (Q02750 whole entry): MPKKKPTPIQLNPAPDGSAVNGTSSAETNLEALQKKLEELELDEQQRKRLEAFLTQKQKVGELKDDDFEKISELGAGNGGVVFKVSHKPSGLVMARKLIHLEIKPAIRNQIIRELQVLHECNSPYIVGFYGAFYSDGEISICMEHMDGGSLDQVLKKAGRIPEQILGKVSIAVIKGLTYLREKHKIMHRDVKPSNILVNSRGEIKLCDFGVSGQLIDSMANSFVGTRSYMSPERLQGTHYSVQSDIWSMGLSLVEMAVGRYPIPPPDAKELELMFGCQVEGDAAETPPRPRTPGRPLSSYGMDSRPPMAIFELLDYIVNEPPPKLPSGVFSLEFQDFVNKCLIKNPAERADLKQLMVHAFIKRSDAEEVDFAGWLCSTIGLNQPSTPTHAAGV
Chain of Mitogen-activated protein kinase kinase kinase 1 (Q13233 whole entry): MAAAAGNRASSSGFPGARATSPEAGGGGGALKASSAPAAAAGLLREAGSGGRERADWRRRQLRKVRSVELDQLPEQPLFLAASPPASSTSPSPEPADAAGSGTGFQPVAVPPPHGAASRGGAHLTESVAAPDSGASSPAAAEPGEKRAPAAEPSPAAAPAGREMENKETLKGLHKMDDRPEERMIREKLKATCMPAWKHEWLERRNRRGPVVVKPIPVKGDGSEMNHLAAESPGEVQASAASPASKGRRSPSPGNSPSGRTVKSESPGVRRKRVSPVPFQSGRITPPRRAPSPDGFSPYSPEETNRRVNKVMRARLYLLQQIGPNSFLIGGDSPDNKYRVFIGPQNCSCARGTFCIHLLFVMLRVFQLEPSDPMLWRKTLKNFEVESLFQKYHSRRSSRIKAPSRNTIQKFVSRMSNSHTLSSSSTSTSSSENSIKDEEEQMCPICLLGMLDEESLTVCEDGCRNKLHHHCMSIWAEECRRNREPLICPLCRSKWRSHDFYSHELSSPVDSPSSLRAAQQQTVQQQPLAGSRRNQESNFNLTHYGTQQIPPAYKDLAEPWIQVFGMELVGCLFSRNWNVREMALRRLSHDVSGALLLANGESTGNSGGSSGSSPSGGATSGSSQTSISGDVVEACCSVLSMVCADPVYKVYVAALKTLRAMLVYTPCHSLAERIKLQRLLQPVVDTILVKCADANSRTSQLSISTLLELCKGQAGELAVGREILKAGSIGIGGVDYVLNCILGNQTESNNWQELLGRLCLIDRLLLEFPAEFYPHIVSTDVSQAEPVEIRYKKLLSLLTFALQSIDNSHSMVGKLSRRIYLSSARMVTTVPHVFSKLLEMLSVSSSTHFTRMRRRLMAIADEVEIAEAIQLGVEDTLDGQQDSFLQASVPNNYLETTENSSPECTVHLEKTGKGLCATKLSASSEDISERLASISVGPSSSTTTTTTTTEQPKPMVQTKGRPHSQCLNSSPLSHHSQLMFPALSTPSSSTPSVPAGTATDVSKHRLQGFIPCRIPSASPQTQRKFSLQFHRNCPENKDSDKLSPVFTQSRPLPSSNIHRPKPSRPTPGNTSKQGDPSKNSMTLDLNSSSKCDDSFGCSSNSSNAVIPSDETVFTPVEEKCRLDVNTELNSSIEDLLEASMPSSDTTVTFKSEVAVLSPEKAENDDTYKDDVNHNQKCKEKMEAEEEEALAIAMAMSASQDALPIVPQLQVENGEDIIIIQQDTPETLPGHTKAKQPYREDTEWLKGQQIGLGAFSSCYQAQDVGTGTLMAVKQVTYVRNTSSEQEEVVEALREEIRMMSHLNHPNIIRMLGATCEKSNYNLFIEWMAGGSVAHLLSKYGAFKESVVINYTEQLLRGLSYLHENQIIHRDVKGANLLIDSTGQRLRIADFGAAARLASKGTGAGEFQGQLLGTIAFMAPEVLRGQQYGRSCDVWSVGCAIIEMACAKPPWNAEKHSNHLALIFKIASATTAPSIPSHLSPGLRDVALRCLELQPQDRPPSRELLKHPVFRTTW
Chain of Mitogen-activated protein kinase 1 (P28482 whole entry): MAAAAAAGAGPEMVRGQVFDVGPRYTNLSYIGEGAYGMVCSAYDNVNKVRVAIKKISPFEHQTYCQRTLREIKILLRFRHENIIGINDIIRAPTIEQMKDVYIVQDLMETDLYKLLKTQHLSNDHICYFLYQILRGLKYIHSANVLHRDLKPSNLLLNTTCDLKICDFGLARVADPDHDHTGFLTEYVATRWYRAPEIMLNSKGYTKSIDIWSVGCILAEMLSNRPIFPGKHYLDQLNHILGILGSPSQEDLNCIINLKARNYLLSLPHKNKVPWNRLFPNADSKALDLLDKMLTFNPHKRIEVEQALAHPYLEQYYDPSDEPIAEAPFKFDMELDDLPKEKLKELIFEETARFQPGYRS

SMILES: CCNc1cc(O)c2c(c1)/C=C/C[C@@H](O)[C@H](O)C(=O)/C=C\[C@H](C)[C@H](C)OC2=O
- IC50 [1]: 0.031 µM
- IC50 [2]: 0.0052 µM

SMILES: C=CS(=O)(=O)Nc1cccc(Cc2nn(C(C)C)c3ncnc(N)c23)c1
- IC50 [3]: > 5 µM

SMILES: C=CC(=O)Nc1cccc(Nc2nc(Nc3ccc(Oc4ccnc(C(=O)NC)c4)cc3)ncc2F)c1
- Occ (Mus musculus): 70%

SMILES: CC#CC(=O)Nc1ccc2ncnc(Nc3cccc(Br)c3)c2c1
- IC50 [4]: 0.001 µM
- IC50 [5]: > 27 µM

SMILES: COc1cc(O)c2c(c1)/C=C/C[C@H](O)[C@H](O)C(=O)/C=C\C[C@H](C)OC2=O
- IC50 [6]: 0.08 µM
- IC50 [7]: > 3 µM
- IC50 [8]: 0.3 µM
- IC50 [2]: 0.006 µM

SMILES: O=C(Nc1ccc2ncnc(Nc3cccc(Br)c3)c2c1)[C@@H]1O[C@H]1CN1CCCCC1
- IC50 [4]: 0.001 µM
- IC50 [5]: > 27 µM

SMILES: CN(C)C/C=C/C(=O)Nc1ccc2ncnc(Nc3cccc(Br)c3)c2c1
- IC50 [4]: 0.001 µM
- IC50 [5]: > 27 µM

SMILES: CCC[C@H]1O[C@@H]2CC(=O)O[C@@H]2C2=C1C(=O)c1c(O)cccc1C2=O [FRENOLICIN B]
- IC50 [9]: 0.313 µM
